Test results published in patent US20210345656A1, “HIGH NICOTINE ABSORPTION” (Fertin Pharma A/S, priority 2017, published 2021).

Settings: nicotine concentration increased from 100 microgram/mL to 14,000 microgram/mL

For `CN1CCCC1c1cccnc1` (stereo not shown) [nicotine], the “Change of permeability of nicotine across the buccal mucosa” value was “decrease of about a factor of two”.
